Test results: patent US5840728A, “Conformationally locked nucleoside analogs as antiherpetic agents” (priority 1997, dated 1998)
Values after ≈ are worked out from the molar mass of the structure shown. Values joined by “and” are separate entries in the source; they are usually repeats but may differ in a detail not shown here. Equal entries are not always repeated. Where two headings read alike, the source gives them in different places.

Key:
[1] = system: HSV-1 (herpes simplex type 1); experiment: microbe, parasite or virus in culture; details: for activity against HSV-1: in words
Excerpt: (§1) Compounds 25 and 26 are (S)-methanocarba-T and (±)-(carba-T), respectively. (±)-carba-T was kindly provided by Dr. Y. Fulmer Shealy, Southern Research Institute, Birmingham, Ala. [drawing 5]

[2] = system: HSV-2 (herpes simplex type 2); experiment: microbe, parasite or virus in culture; details: for activity against HSV-2: in words
Excerpt: as §1

[3] = system: HCMV (human cytomegalovirus); experiment: microbe, parasite or virus in culture; type: cell-based; details: for EC50: Human betaherpesvirus 5, Table 5, HCMV, read-out: EC50; for activity against HCMV: in words
[4] = Cytotoxicity in host cells / stationary cells (HFF); type: cell-based, human; details: human, hff cells
Excerpt: ^d CC50 = cytotoxic concentration in μg/mL that produces 50%

[5] = system: HCMV (human cytomegalovirus); experiment: microbe, parasite or virus in culture; type: cell-based
Excerpt: | ^f plaque reduction assay.

[6] = system: EBV (Epstein-Barr virus); experiment: microbe, parasite or virus in culture; type: cell-based; details: human gammaherpesvirus 4, EBV
Excerpt: as §1

[7] = Cytotoxicity in growing (rapidly dividing) HFF; type: cell-based, human; details: human, growing hff cells
[8] = system: herpes viruses; experiment: Antiherpetic activity, overall; type: cell-based; details: in words
[9] = Human alphaherpesvirus 1, Table 5, HSV-1
[10] = Human alphaherpesvirus 2, Table 5, HSV-2

SMILES | SI (CC50/EC50) [1] | EC50 [1, 9] | SI (CC50/EC50) [2] | EC50 [2, 10] | SI (CC50/EC50) [3] | EC50 [3] | activity against HCMV [3] | also measured
Nc1ccn([C@@]23C[C@H](O)[C@@H](CO)[C@@H]2C3)c(=O)n1 [(S)-DMC-C, reference compound] | < 3.7 | > 4 mg/L | < 3.7 | > 4 mg/L | > 1.1 | 88.9 mg/L (≈ 375 µM) |  | 
O=c1ccn([C@H]2C[C@H](O)[C@]3(CO)C[C@H]23)c(=O)[nH]1 [Compound 21, (1R,2S,4S,5S)-1-(Hydroxymethyl)-2-hydroxy-4-(2,4-(1H,3H)-dioxopvrimidin-1-yl)bicyclor3.1.Olhexane] | 1 | > 100 mg/L | 1 | > 100 mg/L | 1 | > 100 mg/L | inactive against all three viruses | activity against HSV-1 [1]: inactive against all three viruses; activity against HSV-2 [2]: inactive against all three viruses; CC50 ([4]; Table 5, host cell not given): > 100 mg/L
Nc1ncnc2c1ncn2[C@@]12C[C@H](O)[C@@H](CO)[C@@H]1C2 [(S)-DMC-A, reference compound] | 1 | > 100 mg/L | 1 | > 100 mg/L | > 15.6 | 6.4 mg/L (≈ 24.5 µM) | active against HCMV | EC50 ([5]; Human betaherpesvirus 5, Table 5, HCMV, plaque reduction assay, read-out: EC50): 2.4 mg/L (≈ 9.19 µM); SI (CC50/EC50) ([5]; human foreskin fibroblasts): > 41.7; CC50 ([4]; Table 5, host cell not given): > 100 mg/L
Nc1nc2c(ncn2COCCO)c(=O)[nH]1 [ACV, acyclovir, reference compound] |  |  |  |  |  |  |  | EC50 ([1]; Human alphaherpesvirus 1, read-out: ACV (EC50), Table 4, HSV-1, acyclovir control): 0.3 mg/L (≈ 1.33 µM); EC50 ([1]; Human alphaherpesvirus 1, read-out: Positive Control EC50, Table 3, HSV-1, HFF, positive control): 0.8 mg/L (≈ 3.55 µM); ACV (EC50) ([1]; Table 4, HSV-1, acyclovir control): 0.15 mg/L; Control EC50 ([1]; Table 5, HSV-1, control): 0.20 mg/L; EC50 ([2]; Human alphaherpesvirus 2, read-out: ACV (EC50), Table 4, HSV-2, acyclovir control): 0.8 mg/L (≈ 3.55 µM); EC50 ([2]; Human alphaherpesvirus 2, read-out: Positive Control EC50, Table 3, HSV-2, HFF, positive control): 4 mg/L (≈ 17.8 µM); ACV (EC50) ([2]; Table 4, HSV-2, acyclovir control): 0.60 mg/L; Control EC50 ([2]; Table 5, HSV-2, control): 1.8 mg/L and 1.5 mg/L; EC50 ([6]; Table 3, Daudi, positive control, read-out: Positive Control EC50): 0.1 mg/L (≈ 0.444 µM); EC50 ([6]; Table 4, acyclovir control, read-out: ACV (EC50)): 0.1 mg/L (≈ 0.444 µM); CC50 ([7]; Table 3, no virus, Growing HFF, positive control, read-out: Positive Control EC50 (line Growing HFF)): 40 mg/L (≈ 178 µM)
Cc1cn([C@@]23C[C@H](O)[C@@H](CO)[C@@H]2C3)c(=O)[nH]c1=O [Compound 25, (S)-methanocarba-T, reference compound] | 1 |  | 1 |  |  |  |  | CC50 ([4]; stationary cells): > 100 mg/L; CC50 ([7]; rapidly dividing cells, read-out: CC50): > 100 mg/L; antiherpetic activity [8]: did not exhibit antiherpetic activity
Nc1ccn([C@H]2C[C@H](O)[C@]3(CO)C[C@H]23)c(=O)n1 [Compound 22] | 486 | 0.14 mg/L (≈ 0.59 µM) | < 4.8 | > 20 mg/L | < 2.2 | > 4 mg/L | active against HCMV | activity against HSV-1 [1]: very active against HSV-1; activity against HSV-2 [2]: Little activity
Nc1nc2c(ncn2[C@@]23C[C@H](O)[C@@H](CO)[C@@H]2C3)c(=O)[nH]1 [(S)-DMC-G, reference compound] | < 3.7 | > 20 mg/L | < 3.7 | > 20 mg/L | < 2.3 | > 20 mg/L |  | 
